Data taken from US20040156869A1, “2-substituted quinazolin-4-ylamine analogues” (Neurogen Corporation, priority 2002, published 2004).

Target: human capsaicin receptor (VR1) (Homo sapiens, UniProt Q8NER1)
Experiment: Capsaicin receptor binding assay ([3H]RTX competition, VR1-transfected HEK293 membranes)

Sequence of human capsaicin receptor (VR1) (Q8NER1 whole entry): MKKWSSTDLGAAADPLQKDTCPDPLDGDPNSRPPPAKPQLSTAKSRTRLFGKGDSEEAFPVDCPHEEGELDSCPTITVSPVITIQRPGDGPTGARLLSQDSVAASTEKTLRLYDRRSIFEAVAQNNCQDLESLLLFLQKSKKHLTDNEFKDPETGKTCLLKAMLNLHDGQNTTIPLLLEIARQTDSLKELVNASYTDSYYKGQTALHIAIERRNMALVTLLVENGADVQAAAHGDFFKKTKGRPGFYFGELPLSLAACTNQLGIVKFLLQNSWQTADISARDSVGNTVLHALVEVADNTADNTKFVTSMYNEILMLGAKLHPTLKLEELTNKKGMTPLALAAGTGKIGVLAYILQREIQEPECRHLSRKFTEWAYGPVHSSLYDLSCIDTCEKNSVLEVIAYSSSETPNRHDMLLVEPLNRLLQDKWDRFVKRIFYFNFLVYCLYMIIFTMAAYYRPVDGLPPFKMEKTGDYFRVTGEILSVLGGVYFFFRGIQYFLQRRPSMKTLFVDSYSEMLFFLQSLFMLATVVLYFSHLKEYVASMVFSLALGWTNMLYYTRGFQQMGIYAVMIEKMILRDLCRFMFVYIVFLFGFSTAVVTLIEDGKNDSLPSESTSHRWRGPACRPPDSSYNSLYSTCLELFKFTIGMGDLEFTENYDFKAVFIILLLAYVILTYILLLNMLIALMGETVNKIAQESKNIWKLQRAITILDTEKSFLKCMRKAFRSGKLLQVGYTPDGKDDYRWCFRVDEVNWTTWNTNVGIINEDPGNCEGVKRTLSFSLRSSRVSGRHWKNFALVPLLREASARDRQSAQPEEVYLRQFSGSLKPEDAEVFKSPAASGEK

Ki [nM]	SMILES
< 1000	FC(F)(F)c1ccc(Nc2nc(CCN3CCC4(CC3)OCCO4)nc3cc(-c4ncccc4C(F)(F)F)ccc23)cc1 [Compound 407, [2-[2-(1,4-Dioxa-8-aza-spiro[4.5]dec-8-yl)-ethyl]-7-(3-trifluoromethyl-pyridin-2-yl)-quinazolin-4-yl]-(4-trifluoromethyl-phenyl)-amine]
< 1000	FC(F)(F)c1ccc(Nc2nc(CCN3CCCC4CCCCC43)nc3cc(-c4ncccc4C(F)(F)F)ccc23)cc1 (stereo not shown) [Compound 408, [2-(Octahydro-quinolin-1-ylethyl)-7-(3-trifluoromethyl-pyridin-2-yl)-quinazolin-4-yl]-(4-trifluoromethyl-phenyl)-amine]
< 1000	CN(C)CCc1nc(Nc2ccc(C(F)(F)F)cc2)c2ccc(-c3ncccc3C(F)(F)F)cc2n1 [Compound 409, [2-Dimethylaminoethyl-7-(3-trifluoromethyl-pyridin-2-yl)-quinazolin-4-yl]-(4-trifluoromethyl-phenyl)-amine]
< 1000	C=CCN(C)CCc1nc(Nc2ccc(C(F)(F)F)cc2)c2ccc(-c3ncccc3C(F)(F)F)cc2n1 [Compound 410, [2-[(Allyl-methyl-amino)-ethyl]-7-(3-trifluoromethyl-pyridin-2-yl)-quinazolin-4-yl]-(4-trifluoromethyl-phenyl)-amine]
< 1000	CCN(CC)CCc1nc(Nc2ccc(C(F)(F)F)cc2)c2ccc(-c3ncccc3C(F)(F)F)cc2n1 [Compound 411, [2-Diethylaminoethyl-7-(3-trifluoromethyl-pyridin-2-yl)-quinazolin-4-yl]-(4-trifluoromethyl-phenyl)-amine]
< 1000	CCCN(C)CCc1nc(Nc2ccc(C(F)(F)F)cc2)c2ccc(-c3ncccc3C(F)(F)F)cc2n1 [Compound 412, [2-[(Propyl-methyl-amino)-ethyl]-7-(3-trifluoromethyl-pyridin-2-yl)-quinazolin-4-yl]-(4-trifluoromethyl-phenyl)-amine]
< 1000	CCCCN(C)CCc1nc(Nc2ccc(C(F)(F)F)cc2)c2ccc(-c3ncccc3C(F)(F)F)cc2n1 [Compound 413, [2-[(Butyl-methyl-amino)-ethyl]-7-(3-trifluoromethyl-pyridin-2-yl)-quinazolin-4-yl]-(4-trifluoromethyl-phenyl)-amine]
< 1000	CCN(CCc1nc(Nc2ccc(C(F)(F)F)cc2)c2ccc(-c3ncccc3C(F)(F)F)cc2n1)C(C)C [Compound 414, [2-[(Isopropyl-ethyl-amino)-ethyl]-7-(3-trifluoromethyl-pyridin-2-yl)-quinazolin-4-yl]-(4-trifluoromethyl-phenyl)-amine]
< 1000	C=CCN(CC=C)CCc1nc(Nc2ccc(C(F)(F)F)cc2)c2ccc(-c3ncccc3C(F)(F)F)cc2n1 [Compound 415, [2-Diallylaminoethyl-7-(3-trifluoromethyl-pyridin-2-yl)-quinazolin-4-yl]-(4-trifluoromethyl-phenyl)-amine]
< 1000	CCCN(CCC)CCc1nc(Nc2ccc(C(F)(F)F)cc2)c2ccc(-c3ncccc3C(F)(F)F)cc2n1 [Compound 416, [2-Dipropylaminoethyl-7-(3-trifluoromethyl-pyridin-2-yl)-quinazolin-4-yl]-(4-trifluoromethyl-phenyl)-amine]
< 1000	CCCCN(CC)CCc1nc(Nc2ccc(C(F)(F)F)cc2)c2ccc(-c3ncccc3C(F)(F)F)cc2n1 [Compound 417, [2-[(Butyl-ethyl-amino)-ethyl]-7-(3-trifluoromethyl-pyridin-2-yl)-quinazolin-4-yl]-(4-trifluoromethyl-phenyl)-amine]
< 1000	CCCN(CCc1nc(Nc2ccc(C(F)(F)F)cc2)c2ccc(-c3ncccc3C(F)(F)F)cc2n1)CC1CC1 [Compound 418, [2-[(Cyclopropylmethyl-propyl-amino)-ethyl]-7-(3-trifluoromethyl-pyridin-2-yl)-quinazolin-4-yl]-(4-trifluoromethyl-phenyl)-amine]
< 1000	CCCCCCN(C)CCc1nc(Nc2ccc(C(F)(F)F)cc2)c2ccc(-c3ncccc3C(F)(F)F)cc2n1 [Compound 419, [2-[(Hexyl-methyl-amino)-ethyl]-7-(3-trifluoromethyl-pyridin-2-yl)-quinazolin-4-yl]-(4-trifluoromethyl-phenyl)-amine]

Continued, compound first:

SMILES	Ki [nM]
CN(CCc1nc(Nc2ccc(C(F)(F)F)cc2)c2ccc(-c3ncccc3C(F)(F)F)cc2n1)C1CCc2ccccc21 (stereo not shown) [Compound 389, [2-[2-(Indan-1-yl-methyl-amino)-ethyl]-7-(3-trifluoromethyl-pyridin-2-yl)-quinazolin-4-yl]-(4-trifluoromethyl-phenyl)-amine]	< 1000
CCC(c1ccccc1)N(C)CCc1nc(Nc2ccc(C(F)(F)F)cc2)c2ccc(-c3ncccc3C(F)(F)F)cc2n1 (stereo not shown) [Compound 390, [2-{2-[Methyl-(1-phenyl-propyl)-amino]-ethyl}-7-(3-trifluoromethyl-pyridin-2-yl)-quinazolin-4-yl]-(4-trifluoromethyl-phenyl)-amine]	< 1000
CC1c2ccccc2CCN1CCc1nc(Nc2ccc(C(F)(F)F)cc2)c2ccc(-c3ncccc3C(F)(F)F)cc2n1 (stereo not shown) [Compound 391, [2-[2-(1-Methyl-3,4-dihydro-1H-isoquinolin-2-yl)-ethyl]-7-(3-trifluoromethyl-pyridin-2-yl)-quinazolin-4-yl]-(4-trifluoromethyl-phenyl)-amine]	< 1000
CN(CCc1nc(Nc2ccc(C(F)(F)F)cc2)c2ccc(-c3ncccc3C(F)(F)F)cc2n1)Cc1ccccc1 [Compound 392, [2-[2-(Benzyl-methyl-amino)-ethyl]-7-(3-trifluoromethyl-pyridin-2-yl)-quinazolin-4-yl]-(4-trifluoromethyl-phenyl)-amine]	< 1000
FC(F)(F)c1ccc(Nc2nc(CCN3CCc4ccccc4C3)nc3cc(-c4ncccc4C(F)(F)F)ccc23)cc1 [Compound 393, [2-[2-(3,4-Dihydro-1H-isoquinolin-2-yl)-ethyl]-7-(3-trifluoromethyl-pyridin-2-yl)-quinazolin-4-yl]-(4-trifluoromethyl-phenyl)-amine]	< 1000
CN(CCc1nc(Nc2ccc(C(F)(F)F)cc2)c2ccc(-c3ncccc3C(F)(F)F)cc2n1)Cc1cccc(F)c1 [Compound 394, [2-{2-[(3-Fluoro-benzyl)-methyl-amino]-ethyl}-7-(3-trifluoromethyl-pyridin-2-yl)-quinazolin-4-yl]-(4-trifluoromethyl-phenyl)-amine]	< 1000
Cc1ccccc1CN(C)CCc1nc(Nc2ccc(C(F)(F)F)cc2)c2ccc(-c3ncccc3C(F)(F)F)cc2n1 [Compound 395, [2-{2-[Methyl-(2-methyl-benzyl)-amino]-ethyl}-7-(3-trifluoromethyl-pyridin-2-yl)-quinazolin-4-yl]-(4-trifluoromethyl-phenyl)-amine]	< 1000
CN(CCc1nc(Nc2ccc(C(F)(F)F)cc2)c2ccc(-c3ncccc3C(F)(F)F)cc2n1)Cc1ccccc1F [Compound 396, [2-{2-[(2-Fluoro-benzyl)-methyl-amino]-ethyl}-7-(3-trifluoromethyl-pyridin-2-yl)-quinazolin-4-yl]-(4-trifluoromethyl-phenyl)-amine]	< 1000
FC(F)(F)c1ccc(Nc2nc(CCN(Cc3ccccc3)C3CC3)nc3cc(-c4ncccc4C(F)(F)F)ccc23)cc1 [Compound 397, [2-[2-(Benzyl-cyclopropyl-amino)-ethyl]-7-(3-trifluoromethyl-pyridin-2-yl)-quinazolin-4-yl]-(4-trifluoromethyl-phenyl)-amine]	< 1000
CN(CCc1ccccc1)CCc1nc(Nc2ccc(C(F)(F)F)cc2)c2ccc(-c3ncccc3C(F)(F)F)cc2n1 [Compound 398, [2-[2-(Methyl-phenethyl-amino)-ethyl]-7-(3-trifluoromethyl-pyridin-2-yl)-quinazolin-4-yl]-(4-trifluoromethyl-phenyl)-amine]	< 1000
FC(F)(F)c1ccc(Nc2nc(CCN3CCCCC3)nc3cc(-c4ncccc4C(F)(F)F)ccc23)cc1 [Compound 399, [2-Piperidin-1-ylethyl-7-(3-trifluoromethyl-pyridin-2-yl)-quinazolin-4-yl]-(4-trifluoromethyl-phenyl)-amine]	< 1000
FC(F)(F)c1ccc(Nc2nc(CCN3CCOCC3)nc3cc(-c4ncccc4C(F)(F)F)ccc23)cc1 [Compound 400, [2-Morpholin-4-ylethyl-7-(3-trifluoromethyl-pyridin-2-yl)-quinazolin-4-yl]-(4-trifluoromethyl-phenyl)-amine]	< 1000
CC1CCN(CCc2nc(Nc3ccc(C(F)(F)F)cc3)c3ccc(-c4ncccc4C(F)(F)F)cc3n2)CC1 [Compound 401, [2-(4-Methyl-piperidin-1-ylethyl)-7-(3-trifluoromethyl-pyridin-2-yl)-quinazolin-4-yl]-(4-trifluoromethyl-phenyl)-amine]	< 1000
FC(F)(F)c1ccc(Nc2nc(CCN3CCCCCC3)nc3cc(-c4ncccc4C(F)(F)F)ccc23)cc1 [Compound 402]	< 1000
FC(F)(F)c1ccc(Nc2nc(CCN3CCSCC3)nc3cc(-c4ncccc4C(F)(F)F)ccc23)cc1 [Compound 403, [2-Thiomorpholin-4-ylethyl-7-(3-trifluoromethyl-pyridin-2-yl)-quinazolin-4-yl]-(4-trifluoromethyl-phenyl)-amine]	< 1000
CC1(C)CCCN(CCc2nc(Nc3ccc(C(F)(F)F)cc3)c3ccc(-c4ncccc4C(F)(F)F)cc3n2)C1 [Compound 404, [2-(3,3-Dimethyl-piperidin-1-ylethyl)-7-(3-trifluoromethyl-pyridin-2-yl)-quinazolin-4-yl]-(4-trifluoromethyl-phenyl)-amine]	< 1000
FC(F)(F)c1ccc(Nc2nc(CCN3CCCCCCC3)nc3cc(-c4ncccc4C(F)(F)F)ccc23)cc1 [Compound 405, [2-Azocan-1-ylethyl-7-(3-trifluoromethyl-pyridin-2-yl)-quinazolin-4-yl]-(4-trifluoromethyl-phenyl)-amine]	< 1000
CC1CCN(CCc2nc(Nc3ccc(C(F)(F)F)cc3)c3ccc(-c4ncccc4C(F)(F)F)cc3n2)CC(C)(C)C1 (stereo not shown) [Compound 406, (4-Trifluoromethyl-phenyl)-{7-(3-trifluoromethyl-pyridin-2-yl)-2-[2-(3,3,5-trimethyl-azepan-1-yl)-ethyl]-quinazolin-4-yl}-amine]	< 1000
